What was measured:
tPA = assay type: biochemical, human
factor XII [1] = biological target: T1, factor XII (Homo sapiens, UniProt P00748); assay type: biochemical
U937 monocytes = assay type: cell-based, human; conditions: 1 h
factor XII [2] = biological target: T1, factor XII; assay type: biochemical; remark: listed apart in the source
nOVA = test system: nOVA; design: species or system Balb/c mice; conditions: mouse, in vivo
OVA = test system: OVA; design: species or system chicken; conditions: in vivo
DOVA = test system: DOVA; design: species or system chicken; conditions: in vivo

T1 sequence (P00748 20-615): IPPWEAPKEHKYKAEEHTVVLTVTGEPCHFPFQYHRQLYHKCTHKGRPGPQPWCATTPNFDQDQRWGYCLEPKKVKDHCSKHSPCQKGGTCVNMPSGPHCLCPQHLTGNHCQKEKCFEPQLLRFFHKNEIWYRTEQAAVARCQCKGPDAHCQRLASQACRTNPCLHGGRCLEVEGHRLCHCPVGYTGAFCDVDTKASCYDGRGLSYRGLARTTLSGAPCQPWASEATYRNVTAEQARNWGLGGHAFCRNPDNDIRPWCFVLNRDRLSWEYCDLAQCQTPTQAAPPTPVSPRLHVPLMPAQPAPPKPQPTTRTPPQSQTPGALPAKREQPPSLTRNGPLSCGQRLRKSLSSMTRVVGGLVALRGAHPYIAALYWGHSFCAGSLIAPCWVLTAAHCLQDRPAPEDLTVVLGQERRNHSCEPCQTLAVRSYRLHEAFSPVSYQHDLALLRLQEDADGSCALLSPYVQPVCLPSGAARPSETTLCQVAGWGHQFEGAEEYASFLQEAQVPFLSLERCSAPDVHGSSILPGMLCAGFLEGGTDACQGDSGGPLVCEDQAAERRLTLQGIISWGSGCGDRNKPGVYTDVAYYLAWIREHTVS
Sequence of nOVA (P01012 whole entry): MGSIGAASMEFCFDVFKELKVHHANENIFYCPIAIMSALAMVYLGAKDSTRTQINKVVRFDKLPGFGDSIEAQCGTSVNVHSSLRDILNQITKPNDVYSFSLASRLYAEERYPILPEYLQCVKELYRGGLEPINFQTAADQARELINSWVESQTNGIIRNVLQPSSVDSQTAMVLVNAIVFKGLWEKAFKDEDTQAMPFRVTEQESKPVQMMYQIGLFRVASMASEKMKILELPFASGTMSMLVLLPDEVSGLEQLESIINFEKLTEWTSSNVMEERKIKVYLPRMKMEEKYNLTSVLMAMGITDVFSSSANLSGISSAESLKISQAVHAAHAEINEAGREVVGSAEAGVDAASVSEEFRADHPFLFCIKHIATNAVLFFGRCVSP

CCCCCCCCCCCCCCCCCC[N+](C)(C)CCCCCCCCCCCCCCCCCC.[Br-] [DDA, dimethyl dioctadecyl ammonium bromide]
activation of tPA by adjuvants (tPA): activators of tPA

Cc1ccc2c(c1)sc(-c1ccc(N(C)C)cc1)[n+]2C.[Cl-] [ThT, Thioflavin T]
inhibition of factor XII activation by DXS500k and 80× diluted plasma (factor XII [1]): fully inhibited | inhibition of the stimulatory activity of FP13 K157G on factor XII autoactivation (factor XII [1]): effectively inhibits

Endostatin
TNFα RNA expression compared to LPS (U937 monocytes; 100 μg/ml amyloid endostatin, 260 μg/ml Hb-AGE, 1 μg/ml LPS, normalized to 18S): approximately 30%

Etanercept [Native Etanercept]
tPA/plasminogen activating potential of protein/antigen preparation (tPA): some tPA activation

control Hb: control haemoglobin, not glycated
TNFα RNA expression relative to endostatin and Hb-AGE (U937 monocytes; 260 μg/ml): approximately threefold lower | TNFα RNA upregulation relative to values after amyloid endostatin or glycated Hb stimulation (U937 monocytes; 260 μg/ml): ≤ 30%

dextran-sulphate [DXS500k]
activation of factor XII in the presence of prekallikrein and high molecular weight kininogen (factor XII [2]): only then effectively activated | factor XII activation by DXS500k (factor XII [1]): only a stimulatory factor for factor XII activation when 80× diluted plasma is present | activation of tPA by adjuvants (tPA): activators of tPA

glucagon [native glucagon]
tPA/plasminogen activating potential of protein/antigen preparation (tPA): some tPA activating potential

ovalbumin [nOVA]
anti-nOVA titer after one week (nOVA): no titer was detected | titer of anti-nOVA antibodies (nOVA): 610 | anti-OVA titer (OVA): can not elicit | anti-DOVA titer (DOVA): can not elicit

— patent US20080118529A1 (priority 2005, published 2008)
